# In the OligoGym collection:
# These antisense oligonucleotides have a phosphorothioate backbone; sugars and methylation of C are not fully specified.
# Target: RIPK2
# Conditions: ASO
# Also: test concentration or dose not given here.
row,Sequence,remaining target (mRNA or protein) (fraction of control)
1,AAAACAGTCACTTACATGCT,0.52
2,AAATAACAGTCTTGAGCTTT,0.73
3,AAGCCTGGGATTTTAGGGCA,0.15
4,AGATGGCCTCCCCGTTCATG,0.51
5,AGGCTTCTGTCATTTGGTTC,0.3
6,ATAAAGCTTTAATACTCACG,0.93
7,ATACTTCATAAAATCAAATT,≥ 1
8,ATCAGGCTGTTGACTTTATT,0.53
9,ATGCAGCCCTTTGAGAACCA,0.18
10,ATGGCCTCCCCGTTCATGGT,0.51
11,ATGTAACTAAATCTAGCTTT,0.72
12,ATTGCATCTTAGACAAGTAA,≥ 1
13,ATTTTCATGGAGCTGAGAGG,0.68
14,CACCAAGGGCAATTTCATGC,0.15
15,CATGGTCCCGGGCGCTCAGG,≥ 1
16,CCACAAGTATTTCCGGGTAA,0.36
17,CCAGGCTGCAGACGTTCTGA,0.3
18,CCCGTTCATGGTCCCGGGCG,0.6
19,CCTCCCCGTTCATGGTCCCG,0.24
20,CGAACCAGAGCTGACTTCTT,0.28

row,Sequence,remaining target (mRNA or protein) (fraction of control)
1,CGTTCATGGTCCCGGGCGCT,0.76
2,GAGCAGCGGAGTGTGGATGT,0.3
3,GATAATTGTCCCTCCTTCTG,≥ 1
4,GATACGCCCCTGCACGAGCG,0.65
5,GCAGATGGCCTCCCCGTTCA,0.84
6,GCAGGTCGGCGAGTTTGTGG,≥ 1
7,GGCCTCCCCGTTCATGGTCC,0.45
8,GTCAGTAGTGTCTAGTAATT,0.52
9,GTGCTCGGTGAGGTATATCA,0.18
10,TATCCTTTTATGAAACACAT,0.69
11,TCCCCGTTCATGGTCCCGGG,0.24
12,TCTATTAAACATTTTAAGAA,≥ 1
13,TCTTTCATGATCAAGTCCCT,0.42
14,TGAAATTCATTGTCCAATAA,0.99
15,TGCATAGCTATATATATCGT,0.77
16,TGGTCCCGGGCGCTCAGGCC,0.23
17,TTACATGCTTTTATTTTGAA,0.5
18,TTATCTGCAAAGGATTGGTG,0.45
19,TTCATGGTCCCGGGCGCTCA,0.53
20,TTTCCTATGTAGGAGTTCAT,≥ 1

# Target: NCOA2
# Conditions: ASO
row,Sequence,remaining target (mRNA or protein) (fraction of control)
1,AAAACTGACTGGGTGGGA,≥ 1
2,AACCACCAAACCTGCCCA,0.42
3,AAGCCAACGATGACCCTA,0.2
4,ACTCATCTTGAACACATA,≥ 1
5,AGAACTGGTCTTTCCTTC,0.92
6,AGGGTTGCTCATAGTTGC,0.61
7,ATCGGCTCGGGTCGGTCA,0.38
8,ATTCTCTTTCTTCTTGGG,0.71
9,CAGCAATATTTCCGTGTT,0.88
10,CATCCCACTCATCTTGAA,≥ 1
11,CATTTACTATAGACTTTG,0.79
12,CCAACATGCAAGATGCTA,0.83
13,CCAAGTTGGTCAGGACAT,≥ 1
14,CCCTAAATTTCCTTGGTT,0.82
15,CTATTAATTTTGTGTTAC,≥ 1
16,CTCTGTGAAATTCGCAGT,≥ 1
17,CTGCGCATGGAACTTCTG,0.45
18,CTGGCTTCAGCAGTGTCA,0.72
19,CTGTCAACATTTACTTGG,≥ 1
20,GAAGCATATGTAAAGATA,≥ 1

row,Sequence,remaining target (mRNA or protein) (fraction of control)
1,GACGCCACCCTGGGAACC,0.74
2,GAGAGACAGCGAAGCACT,0.29
3,GCAAGCTACCTGTGGAGT,0.5
4,GCTGGGTTGGCCTGAGAC,≥ 1
5,GCTGTGCTTGGAGGCGAT,0.43
6,GGACATAGCAAGTCATCT,0.62
7,GGATTTCCCTCTGTCTCT,0.32
8,GGCCCCAGCGCATCCTTG,0.45
9,GGGAAAAGCTGTGGTAAT,0.79
10,GTAGGCACGGAGGTCACT,≥ 1
11,GTTATACCTTAGATACTG,0.84
12,TCAGCAGTGTCAGCAATA,≥ 1
13,TCTGCCCTTTGCTGTCAT,0.59
14,TGCACATTTGTCAGGTTT,0.18
15,TGCACTTCATCTATGTTG,0.5
16,TGCCTTCCAGGTTCACTA,0.99
17,TGCTGTGGGAAAACGGGC,0.43
18,TTCATGGCACTGGTGGTA,0.85
19,TTCTGAATCAGGTAAAGG,≥ 1
20,TTTCTCCCATCCCACTCA,0.87

# Target: MAP4K4
# Conditions: ASO
row,Sequence,remaining target (mRNA or protein) (fraction of control)
1,CTCTGCAGGGCGGGATGCAC,≥ 1
2,CTTCCTCTTCATCCTCAGTG,0.34
3,GAACCATCTGCACATGATTT,0.48
4,GACTGAGTCTGGCGGACGAT,0.84
5,GACTTGGATGATGATCTCAC,0.86
6,GCATGGAATCCAGCACAGGA,0.69
7,GCCGTACATCTTCCACTGCT,0.45
8,GCCTTGATTTATTTTGGAGT,0.92
9,GCTCCTTTCCTGCTGCGGTG,0.37
10,GCTCTCATTGGATGCATGTC,0.39
11,GGACTCGTCAGCCCCTTCCT,0.16
12,GGATCATTGTGAAGTATTTT,0.84
13,GGTACGATCTATATGATCCT,0.8
14,GTACGTCCATTTGTTGAAAT,0.51
15,TAAACCTGACTGCTGCCACC,0.53
16,TCCAAATGACTTAAAGGCCA,0.68
17,TGGACAATCATGGTTTTCAC,0.71
18,TGTAGGCATCTCTCCCCACT,0.42
19,TTTGATTCTTTCATATTTTA,0.82
